# Reference: patent publication US20230181905A1, “Systems, Devices, and Methods for Enhancing the Neuroprotective Effects of Non-Invasive Gamma Stimulation with Pharmacological Agents” (Massachusetts Institute of Technology, priority 2021, published 2023)
# Tests used:
# amyloid plaques (D54D2) = assay: D54D2 amyloid plaque staining in APOE4-KI 5×FAD hippocampus; format: in vivo, mouse; conditions: APOE4-KI 5×FAD mice, PLX3397 diet combined with 21 days A+V GENUS
# Description: Given that APOE4+ individuals accumulate A #earlier than non-carriers, and that APOE facilitates the response of microglia to amyloid, GENUS outcomes in an APOE4-KI amyloid model were examined. To this end, 21d A+V (audio and visual) GENUS in APOE-KI 5×FAD model was performed and amyloid and microglial outcomes were examined.
# Next, 7-8 month old male APOE4-KI 5×FAD animals were treated with 3 weeks of PLX3397 diet (or control), followed by 21 days of A+V GENUS, during which animals remained on their diets (FIG. 37).
# IBA1+ microglia = IBA1+ microglia density, area and volume by immunohistochemistry; format: in vivo, mouse
# Description: Experiments were performed to reduce microglia from 10-month-old 5×FAD mice, transgenic mice that overexpress human APP and PSEN1 genes harboring 5 AD-associated mutations, prior to GENUS treatment. […] Following 20 days of administration of Plx3397 chow, untreated- and Plx3397-treated 5×FAD mice (which continued Plx3397 administration) were subjected to 30 days of daily GENUS (FIG. 1A). Following completion of these treatments, microglial density in the visual cortex was compared between 1) untreated (No Stim), 2) Plx3397 treated, 3) GENUS treated and 4) Plx3397+GENUS treated 5×FAD mice (FIG. 1B).
# Whether the neuroprotective effect is broader and can be replicated in other mouse models of neurodegeneration was evaluated. The CK-p25 mice, transgenic mice that overexpress CDK5 activator p25 in excitatory neurons, were subjected to these treatments. CK-p25 mice, which was raised in doxycycline containing food, was given either normal rodent chow (containing no doxycycline) or Plx3397 chow, and the mice simultaneously underwent no sensory stimulation or GENUS (FIG. 7A). After 42 days of treatment, neuroprotective factors were evaluated. Plx3397, GENUS and Plx3397+GENUS treatments reduced microglia in the visual cortex in CK-p25 mice (ANOVA F (3,35)=40.93, P<0.0001) (FIGS. 7B-7D), consistent with the results observed in 5×FAD mice and recent findings.
# (§1) Microglia: Iba1 immunoreactive cells were considered microglia. Using an LSM 710 or LSM 880 with a 10× (for Iba1+ cell counts) or 40× (for morphological analysis) objective z stacks of the entire slice thickness […] with […] step size were acquired. Imaris was used for 3D rendering of images to quantify the total volume of microglia.
# (§2) To study how CSF1R-sensitive microglia impact neural activity in the context of AD, an amyloidosis mouse model, the 5×FAD mice—which is a most commonly used mouse model for AD, was subject to a diet containing CSF1R inhibitor Plx3397 for 50 days (FIG. 21A). The CSF1R inhibitor Plx3397 (600 ppm) was employed, which was previously shown to effectively reduce microglia in vivo. Control mice were age-matched 5×FAD litters that received a regular diet. Electrophysiological recordings were performed using linear probes. Post-recording, the recording site in the visual cortex was verified by histology (FIG. 21), and microglia reduction was evaluated by assessing IBA1+ cell numbers.
# How does regulating gamma oscillations affect synaptic and neural circuit function in Plx3397 treated 5×FAD mice? Specifically, it was asked what gene expression patterns are after the Plx3397 treatment and how gamma entrainment impacts such a signature. To address these questions, an unbiased RNA sequencing approach was utilized. 5×FAD mice were treated, via oral delivery in mouse chow, with the Plx3397. Following 20 days of administration of Plx3397 chow, untreated- and Plx3397-treated 5×FAD mice (which continued Plx3397 administration) were subjected to 30 days of daily GENUS (FIG. 24A). Following completion of the treatments, microglial density was quantified between 1) untreated (control), 2) Plx3397, 3) GENUS and 4) Plx3397+GENUS treated 5×FAD mice (FIGS. 24A-24D). […] Also observed was a reduction in IBA1 signal in the GENUS group (84.0±6.42 & 9.17±0.85) (FIGS. 24C-24D), which is consistent with previous observation in CK-p25 mice. After the treatments, the visual cortex was dissected, and single nucleus RNA-sequencing was performed.
# as §1, with “of microglia. MAC2+ cells were counted manually using Image J.” for “of microglia.”
# [1] = system: excitatory neurons and interneurons of the visual cortex; assay: In vivo electrophysiology: single unit spiking and LFP phase locking; design: species or system mouse
# Description: Next, principal component analyses was performed using action potential properties, isolated single units, and further separated them into excitatory and interneurons (FIG. 15A).
# Single units were manually isolated by drawing cluster boundaries around the 3D projection of the recorded spikes, presented in SpikeSort3D software (Neuralynx).
# The relationship between spike firing times and LFP gamma phase was calculated by mean resultant length using the Circular Statistics Toolbox. Briefly, spikes were sorted and LFP traces were filtered using the continuous wavelet transform returning the instantaneous signal phase and amplitudes. Spike times were linearly interpolated to determine phase, with peaks and troughs of gamma defined as 0 and ±pi radians respectively. The resulting phase values were binned to generate firing probabilities, for each 20-degree interval. […] All analyses were performed using MATLAB.
# Spikes: Single units were manually isolated by drawing cluster boundaries around the 3D projection of the recorded spikes, presented in SpikeSort3D software (Neuralynx).
# Single unit—LFP phase locking: The relationship between spike spiking times and LFP gamma phase was calculated by mean resultant length using the Circular Statistics Toolbox MATLAB File Exchange Function.
# Briefly, spikes were sorted and LFP traces were filtered using the continuous wavelet transform returning the instantaneous signal phase and amplitudes. Spike times were linearly interpolated to determine phase, with peaks and troughs of gamma defined as 0 and ±pi radians respectively. The resulting phase values were binned to generate spiking probabilities, for each 20-degree interval. […] All analyses were performed using MATLAB. All in vivo electrophysiological analyses were conducted in MATLAB (Mathworks, #R2019a) utilizing signal processing and image processing toolboxes.
# [2] = system: CSF1R resistant progenitor-like MAC2+ microglia; assay: MAC2+ microglia immunohistochemistry; format: in vivo, mouse; conditions: 5×FAD mice; Plx3397 diet 50 days vs control
# Description: as §2
# as §1, with “of microglia. MAC2+ cells were counted manually using Image J.” for “of microglia.”
# [3] = 5×FAD mice, visual cortex, Plx3397 chow 50 days, GENUS last 30 days
# [4] = Plx3397 treated 5×FAD mice, baseline
# [5] = Plx3397 treated 5×FAD mice, during acute 40 Hz entrainment
compound,measurement,setting,value
"FC(F)(F)c1ccc(CNc2ccc(Cc3c[nH]c4ncc(Cl)cc34)cn2)cn1 [Plx3397, Pexidartinib]",amyloid plaque number,amyloid plaques (D54D2); hippocampus CA1,significant reduction
same,amyloid total area,amyloid plaques (D54D2),significant reduction
same,amyloid staining mean intensity,amyloid plaques (D54D2); vs standard diet,significant reduction
same,IBA1+ positive microglia,"IBA1+ microglia; 5×FAD mice, CA1 region of the hippocampus",significant reduction
same,IBA1+ cells,"IBA1+ microglia; 5×FAD mice, hippocampus, chronic Plx3397 vs control",reduced
same,IBA1+ positive microglia,"IBA1+ microglia; 5×FAD mice, visual cortex, Plx3397 chow 600 ppm 20 days, then 30 days continued with or without daily GENUS, vs untreated",significant reduction
same,% area covered by IBA1,IBA1+ microglia; [3],7.27±0.45%
same,IBA1+ microglia number,IBA1+ microglia; [3],47.18±5.44 % no treatment control
same,IBA1+ cells,"IBA1+ microglia; 5×FAD mice, visual cortex, Plx3397 diet 600 ppm for 50 days",12±1.91 cells
same,volume of microglia,"IBA1+ microglia; CK-p25 mice, visual cortex, 42 days",lower volume
same,microglia,"IBA1+ microglia; CK-p25 mice, visual cortex, 42 days of treatment",reduced
same,IBA1+ microglial cells,"IBA1+ microglia; CK-p25 mice, visual cortex, chronic treatment 6 weeks",44.19±2.86 % no treatment control
same,overall mean spiking rate of E-neurons and I-neurons,"[1]; 5×FAD mice, Plx3397 diet 50 days vs control",no differences
same,% of E-neurons and I-neurons phase-locked to 3-12 Hz theta oscillations,"[1]; 5×FAD mice, Plx3397 vs control",reduction
same,percentage of E-neurons and I-neurons phase-locked to 30-50 Hz gamma oscillations,"[1]; 5×FAD mice, Plx3397 vs control",less phase-locked
same,strength of phase-locked neurons to gamma oscillations,"[1]; 5×FAD mice, Plx3397 vs control",without significant difference
same,strength of theta phase-locking of neurons,"[1]; 5×FAD mice, Plx3397 vs control",increase
same,I-neurons showing 40 Hz entrainment,"[1]; Plx3397 treated 5×FAD mice, acute 40 Hz entrainment, of the 47 I-neurons",13 neurons
same,percentage of I-neurons phase-locked to gamma,[1]; [4],34.04%
same,percentage of gamma phase-locked E-neurons,[1]; [4],35.64%
same,percentage of I-neurons phase-locked to gamma,[1]; [5],65.95%
same,percentage of gamma phase-locked E-neurons,[1]; [5],46.53%
same,gamma phase-locking strength of E-neurons and I-neurons,"[1]; Plx3397 treated 5×FAD mice, during acute 40 Hz entrainment vs baseline",enhanced
same,CSF1R resistant progenitor-like MAC2+ microglia,[2],no difference
